Measurements published in BindingDB's records for doi:10.1021/bi7000505 (Wyeth Research, 2007).

Each molecule was assayed against T1, Caspase-3 (Homo sapiens, UniProt P42574).
T1 sequence (P42574 whole entry): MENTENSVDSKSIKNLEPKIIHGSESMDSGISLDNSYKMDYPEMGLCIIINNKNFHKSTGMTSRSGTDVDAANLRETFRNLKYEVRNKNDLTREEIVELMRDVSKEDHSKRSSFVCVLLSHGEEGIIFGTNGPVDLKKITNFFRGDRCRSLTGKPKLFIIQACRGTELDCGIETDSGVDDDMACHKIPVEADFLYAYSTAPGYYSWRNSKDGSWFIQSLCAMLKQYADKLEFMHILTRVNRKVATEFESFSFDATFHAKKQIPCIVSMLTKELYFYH

Question: Which Ki does the source give for O=C1Nc2ccc(S(=O)(=O)N3CCC[C@H]3COc3cccnc3)cc2C1=O [5-{[(2S)-2-[(pyridin-3-yloxy)methyl]pyrrolidine-1-]sulfonyl}-2,3-dihydro-1H-indole-2,3-dione] here?
Answer: Its Ki is 16.1 nM.

Question: For O=C(O)C[C@H](NC(=O)[C@@H](c1ccccc1)n1cccc(NC(=O)c2ccc3ccccc3c2)c1=O)C(=O)COc1ccccc1 [(3S)-3-[(1R)-1-[3-(naphthalene-2-amido)-2-oxo-1,2-dihydropyridin-1-yl]-1-phenylacetamido]-4-oxo-5-phenoxypentanoic acid], which Ki is on record?
Answer: Its Ki is 165 nM.

Question: Which Ki does the source give for CN1C(=O)C(=O)c2cc(S(=O)(=O)N3CCC[C@H]3COc3ccccc3)ccc21 [(S)-1-Methyl-5-{1-[2-(phenoxymethyl)pyrrolidinyl]sulfonyl}isatin] here?
Answer: The Ki was 11 nM.

Question: O=C1C(=O)N(Cc2ccccc2)c2ccc(S(=O)(=O)N3CCC[C@H]3COc3ccccc3)cc21 [JMC522188 Compound 2] was tested. Which Ki did it give?
Answer: The Ki was 2.5 nM.
